Measured values as given in ChEMBL document CHEMBL1201862, “PubChem BioAssay data set” (2004).
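Grown in 96-well plates, cells were treated for 48 hours with each compound at five concentrations. Insufficient inhibition: endpoint recorded as highest concentration tested. Here, GI50 denotes the concentration required for 50% inhibition of growth.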 Activity calls are given as the source filed them. Cut-off read from the data, not from the text of the source: active = GI50 up to about 1.1 µM and inactive = higher.

Experiments:
Test in all cases: inhibition of tumour cell growth, NCI panel, 48 h
NCI-H23 = tested on: NCI-H23
NCI-H460 = tested on: NCI-H460
ACHN = tested on: ACHN
OVCAR-5 = tested on: OVCAR-5
PC-3 = tested on: PC-3
HOP-62 = tested on: HOP-62
RPMI-8226 = tested on: RPMI-8226
NCI-H226 = tested on: NCI-H226
IGROV-1 = tested on: IGROV-1
SR = tested on: SR
Hs-578T = tested on: Hs-578T
SF-268 = tested on: SF-268
RXF 393 = tested on: RXF 393
A498 = tested on: A498
MDA-N = tested on: MDA-N
UACC-62 = tested on: UACC-62
SNB-75 = tested on: SNB-75
KM12 = tested on: KM12
SK-MEL-28 = tested on: SK-MEL-28

Row | SMILES | GI50 (NCI-H23) | GI50 (NCI-H460) | GI50 (ACHN) | GI50 (OVCAR-5) | GI50 (PC-3) | GI50 (HOP-62) | GI50 (RPMI-8226) | GI50 (NCI-H226) | GI50 (IGROV-1) | GI50 (SR) | GI50 (Hs-578T) | GI50 (SF-268) | GI50 (RXF 393) | GI50 (A498) | GI50 (MDA-N) | GI50 (UACC-62) | GI50 (SNB-75) | GI50 (KM12) | GI50 (SK-MEL-28)
1 | O=[N+]([O-])c1cccc2nc3ccccc3c(NCCCn3ccnc3[N+](=O)[O-])c12 | 0.0003 µM (active) | < 0.0001 µM (active) | 0.000161 µM (active) | 0.00017 µM (active) | 0.000598 µM (active) | 0.000785 µM (active) | < 0.0001 µM (active) | 0.000245 µM (active) | 0.00389 µM (active) | 0.02 µM (active) | 0.0169 µM (active) | 0.000819 µM (active) | 0.000139 µM (active) | 0.000227 µM (active) | < 0.0001 µM (active) | 0.000959 µM (active) | 0.0137 µM (active) | 0.000114 µM (active) | 0.00189 µM (active)
2 | O=C(Nc1ccc(-c2cn3ccccc3n2)cc1)c1cc(Br)ccc1O | > 100 µM (inactive) | > 100 µM (inactive) | > 100 µM (inactive) | > 100 µM (inactive) | > 100 µM (inactive) | > 100 µM (inactive) | > 100 µM (inactive) | > 100 µM (inactive) | > 100 µM (inactive) | > 100 µM (inactive) | > 100 µM (inactive) | > 100 µM (inactive) | > 100 µM (inactive) | > 100 µM (inactive) | > 100 µM (inactive) | > 100 µM (inactive) | > 100 µM (inactive) | > 100 µM (inactive) | > 100 µM (inactive)
3 | CC(=O)N(C)C(C(=O)N1CC(C)CC1C(=O)N(C)C1C(=O)NC(CC(C)C)C(=O)N2CC(C)CC2C(=O)NC(CC(C)C)C(=O)N(C)C(C(C)C)C(=O)N2CCCC2C(=O)N(C)C(CC(C)C)C(=O)NCC(=O)OC1C)C(C)C (stereo not given) | > 100 µM (inactive) | > 100 µM (inactive) | > 100 µM (inactive) | > 100 µM (inactive) | > 100 µM (inactive) | > 100 µM (inactive) | > 100 µM (inactive) | > 100 µM (inactive) | 72.1 µM (inactive) | > 100 µM (inactive) | > 100 µM (inactive) | > 100 µM (inactive) | > 100 µM (inactive) | > 100 µM (inactive) | > 100 µM (inactive) | > 100 µM (inactive) | > 100 µM (inactive) | > 100 µM (inactive) | > 100 µM (inactive)
4 | CCOC(=O)N(Cc1cccs1)c1cc(OC)c(OC)c(OC)c1 | > 100 µM (inactive) | 51.1 µM (inactive) | > 100 µM (inactive) | > 100 µM (inactive) | 33.1 µM (inactive) | > 100 µM (inactive) | 25.8 µM (inactive) | 86.3 µM (inactive) | 17 µM (inactive) | 21.3 µM (inactive) | 86.5 µM (inactive) | > 100 µM (inactive) | 83 µM (inactive) | > 100 µM (inactive) | 28.9 µM (inactive) | 40 µM (inactive) | 49.4 µM (inactive) | 47.5 µM (inactive) | > 100 µM (inactive)
5 | Cc1cc(CC(O)(C(F)(F)F)C(F)(F)F)cc(CC(O)(C(F)(F)F)C(F)(F)F)n1 | 2.51 µM (inactive) | 2.04 µM (inactive) | 2.79 µM (inactive) | 6.79 µM (inactive) | 2.9 µM (inactive) | 3.33 µM (inactive) | 1.61 µM (inactive) | 2.72 µM (inactive) | 3.46 µM (inactive) | 4.08 µM (inactive) | 2.67 µM (inactive) | 2.7 µM (inactive) | 4.24 µM (inactive) | 2.76 µM (inactive) | 3.88 µM (inactive) | 3.57 µM (inactive) | 2.31 µM (inactive) | 2.27 µM (inactive) | 3.03 µM (inactive)
6 | Cc1ccnc2sc3ccccc3c(=O)c12 | 59 µM (inactive) | 24 µM (inactive) | 35.1 µM (inactive) | 48.5 µM (inactive) | 35.6 µM (inactive) | 98.4 µM (inactive) | 36.7 µM (inactive) | 36.1 µM (inactive) | 30.7 µM (inactive) | 54.8 µM (inactive) | 27.3 µM (inactive) | 32.7 µM (inactive) | 23.9 µM (inactive) | 29.8 µM (inactive) | 39.4 µM (inactive) | 17.6 µM (inactive) | 22.4 µM (inactive) | 53.7 µM (inactive) | 48.9 µM (inactive)
7 | S=C1Cc2c(-c3ccc(Cl)cc3)cc(-c3ccccc3)nc2-c2ccccc2N1 | 11.6 µM (inactive) | 13 µM (inactive) | 7.82 µM (inactive) | 24.5 µM (inactive) | 15.2 µM (inactive) | 6.98 µM (inactive) | 37.3 µM (inactive) | 13.1 µM (inactive) | 3.83 µM (inactive) | > 100 µM (inactive) | 3.56 µM (inactive) | 14.3 µM (inactive) | 6.56 µM (inactive) | 14.8 µM (inactive) | 14 µM (inactive) | 14.6 µM (inactive) | 3.76 µM (inactive) | 4.85 µM (inactive) | 13.8 µM (inactive)
8 | Cn1ncc2[nH]cnc2c1=S | > 100 µM (inactive) | > 100 µM (inactive) | > 100 µM (inactive) | > 100 µM (inactive) | > 100 µM (inactive) | > 100 µM (inactive) | 34.8 µM (inactive) | > 100 µM (inactive) | > 100 µM (inactive) | 26.7 µM (inactive) | > 100 µM (inactive) | > 100 µM (inactive) | > 100 µM (inactive) | > 100 µM (inactive) | > 100 µM (inactive) | > 100 µM (inactive) | 86.1 µM (inactive) | > 100 µM (inactive) | > 100 µM (inactive)
9 | CC(=O)/C=C1\Nc2ccc([N+](=O)[O-])cc2N\C1=C/C(C)=O | 25.1 µM (inactive) | 21.5 µM (inactive) | 42.5 µM (inactive) | > 100 µM (inactive) | 44.3 µM (inactive) | 44.9 µM (inactive) | 20.6 µM (inactive) | 39.4 µM (inactive) | 39.5 µM (inactive) | 17.9 µM (inactive) | 26.7 µM (inactive) | 47.8 µM (inactive) | 64.3 µM (inactive) | 25.4 µM (inactive) | 37.3 µM (inactive) | 26.7 µM (inactive) | > 100 µM (inactive) | 34.3 µM (inactive) | 51.1 µM (inactive)
10 | COc1cc(-c2cn(S(=O)(=O)c3ccc(C)cc3)c3ccccc23)nc(-c2cn(S(=O)(=O)c3ccc(C)cc3)c3ccccc23)n1 | 0.245 µM (active) | 0.388 µM (active) | 0.927 µM (active) | 1.13 µM (inactive) | 0.773 µM (active) | 1.84 µM (inactive) | 0.375 µM (active) | 0.935 µM (active) | 0.728 µM (active) | 0.216 µM (active) | 0.433 µM (active) | 0.755 µM (active) | 0.372 µM (active) | 1.32 µM (inactive) | 0.441 µM (active) | 0.632 µM (active) | 4.42 µM (inactive) | 0.438 µM (active) | 23.3 µM (inactive)
